US8637681B2, “Pyrrolyl substituted dihydroindol-2-one derivatives, preparation methods and uses thereof” (Qilu Pharmaceutical Co., Ltd., priority 2010, dated 2014)
Values joined by “and” are separate entries in the source; they are usually repeats but may differ in a detail not shown here. Equal values may be shown once.

Tests used:
[1] = test system: arterial ring angiogenesis in rats; assay: Inhibitory actions on arterial ring angiogenesis in rats; assay type: cell-based; details: Rattus norvegicus, area covered by micrangiums vs control well, read-out: Inhibitory rate (%); for inhibition at 0.2 µg/mL: 0.2 μg/ml; for inhibition at 1 µg/mL: 1 μg/ml; for inhibition at 5 µg/mL: 5 μg/ml
Method in brief: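 Rat thoracic aorta cut into 1 mm rings, embedded in Matrigel and cultured at 37 °C with compound; medium and drug renewed every 3 days. Microvessel sprouting area imaged by microscopy; inhibition (%) = (control area − drug area)/control area × 100.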

[2] = Cytotoxicity test (SRB), A549; assay type: cell-based; details: human, A549 non-small cell lung cancer cells
Method in brief: (§1)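 Cells seeded at 4000/well in DMEM with 10% FBS, adhered overnight, then treated 72 h at 37° C, 5% CO2 with compound (final DMSO 0.25%). TCA-fixed and stained with SRB, A540 read. IC50 (μM) calculated by Logit method.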

[3] = Cytotoxicity test (SRB), Hela; assay type: cell-based; details: human, Hela cervical cancer cells
Method in brief: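 A549, Hela and A431 cells seeded at 4000/well, adhered overnight, then exposed to compound dilutions (final DMSO 0.25%) for 72 h at 37° C., 5% CO2. SRB read-out: absorbance at 540 nm; IC50 (μM) calculated by Logit method.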

[4] = Cytotoxicity test (SRB), A431; assay type: cell-based; details: human, A431 skin cancer cells
Method in brief: as §1

[5] = test system: human colon cancer HT 29 transplanted tumor; assay: Nude mice transplanted tumor test; assay type: in vivo, female Balb/cA nude mice; set-up: key to d21 Vave ± SD (average tumor volume): tumor volume TV = ½×a×b² (a, b = major, minor diameter), in mm³; details: for Dead animal number: dead/total animals; for inhibition in vivo at 80 mg/kg: Mus musculus, HT-29, po, 504 h, (1−T/C)×100%, read-out: Tumor inhibition rate d21 (%); for inhibition in vivo at 80 mg/kg / d21 Wave ± SD (average bodyweight of nude mice) / d21 Vave ± SD (average tumor volume) / d21 RTV ± SD (relative tumor volume): d21; for d0 Wave ± SD (average bodyweight of nude mice): d0, at grouping before administration (baseline); for d21 Vave ± SD (average tumor volume): HT 29 in nude mice; for d21 RTV ± SD (relative tumor volume): RTV=Vt/V0
Method in brief: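 Female Balb/cA nude mice bearing HT 29 colon tumour fragments in the right axilla, grouped at about 120 mm^3, received 80 mg/kg intragastrically daily for 20 days; vehicle was water with 0.1% Tween 80. Tumour volume (½×a×b^2) measured 2-3 times weekly, expressed as relative tumour volume Vt/V0.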

[6] = test system: three kinds of tumor cells (A549, Hela, A431); assay: Cytotoxicity test, summary over the three tumor cell lines; assay type: cell-based, human; details: compared with positive control Sunitinib
Description: Cytotoxicity of the compounds of the present invention was tested with human non-small cell lung cancer cells A549, human cervical cancer Hela cells, human skin cancer cells A431. The test was performed by referring to the method described by Rusnak et al (Rusnak D. W., et al., Cell Prolif., 2007, 40, 580-94).
In Dulbecco's Modified Eagle Medium (DMEM) comprising 10% fetal bovine serum, 2 mM glutamine and non-essential amino acids, cells were cultured at 37° C. in 5% CO2 cell incubator. Trypsin/ethylenediamine tetraacetic acid (EDTA) were used to harvest cells in cell culture bottle. The cells were added to a 96-well cell culture plate, 4000/well (0.1 ml medium), adhering wall overnight, 0.1 ml of the diluted solution of the compounds to be tested was added, the final concentration of DMSO was 0.25%. The cell culture plate was incubated at 37° C., 5% CO2 conditions for 72 h. The change of cellular morphology was observed under microscope, and then 50 μl of 50% (mass/volume) trichloroacetic acid (TCA) was added to each well to fix cells. The final concentration of TCA was 10%. It stood for 5 min, than was placed in 4° C. refrigerator for 1 h, the wells of the culture plate were washed with deionized water for 5 times to remove TCA, drained, dried in air until no wet trace was observed. 100 μl of 0.4% (mass/volume) SRB was added to each well, stood at room temperature for 10 min. The liquid in each well was discarded, and then the wells were washed with 1% acetic acid for 5 times, dried in air, extracted with 150 μl of 10 mM Tris base (trihydroxymethylaminomethane, pH 10.5). The absorption at a wavelength of 540 nm was measured. The IC50 (μM) of the compound was calculated using Logit method.

[7] = 80 mg/kg intragastrically each day for 20 days
[8] = 80 mg/kg intragastrically each day for 20 days, in mm³ (unit assumed)

| SMILES | inhibition at 0.2 µg/mL [1] | inhibition at 1 µg/mL [1] | inhibition at 5 µg/mL [1] | IC50 at 72 h [2] | IC50 at 72 h [3] | IC50 at 72 h [4] | Dead animal number [5, 7] | inhibition in vivo at 80 mg/kg [5, 7] | d0 Wave ± SD (average bodyweight of nude mice) [5] | d21 Wave ± SD (average bodyweight of nude mice) [5, 7] | d21 Vave ± SD (average tumor volume) [5, 8] | d21 RTV ± SD (relative tumor volume) [5, 7] | Cytotoxicity to tumor cells (in words) [6] | d21 Vave ± SD (average tumor volume) [5, 7] | States of mice / toxicity signs (in words) [5, 7] | Bodyweight of mice after administration (in words) ([5]; mouse, in vivo) |
| --- | --- | --- | --- | --- | --- | --- | --- | --- | --- | --- | --- | --- | --- | --- | --- | --- |
| CCN(CC)CCC(=O)Nc1c(C)[nH]c(/C=C2\C(=O)Nc3ccc(Br)cc32)c1C [Compound 3, N-{5-[5-bromo-2-oxo-1,2-dihydro-indol-(3Z)-ylidenemethyl]-2,4-dimethyl-1H-pyrrol-3-yl}-3-(N,N-diethylamino)propionamide] | 93% | 100% | 100% | > 30 µM | 5.08 µM | > 30 µM | 0/6 | 86.4% | 19.3 ± 0.41 | 17.3 ± 0.56 | 120.6 ± 40.2 | 0.98 ± 0.36 | certain toxicity to some cells | – | – | – |
| Cc1[nH]c(/C=C2\C(=O)Nc3ccc(F)cc32)c(C)c1NC(=O)CCN(C)C [Compound 6, N-{5-[5-fluoro-2-oxo-1,2-dihydro-indol-(3Z)-ylidenemethyl]-2,4-dimethyl-1H-pyrrol-3-yl}-3-(N,N-dimethylamino)propionamide] | 92% | 100% | 100% | > 30 µM | 8.08 µM | > 30 µM | 0/6 | 84.7% | 18.7 ± 0.38 | 20.4 ± 0.49 | 130.7 ± 37.4 | 1.10 ± 0.38 | certain toxicity to some cells | – | – | – |
| C=CC(=O)Nc1c(C)[nH]c(/C=C2\C(=O)Nc3ccc(F)cc32)c1C [Compound 7, N-{5-[5-fluoro-2-oxo-1,2-dihydro-indol-(3Z)-ylidenemethyl]-2,4-dimethyl-1H-pyrrol-3-yl}-acrylamide] | 95% | 100% | 100% | > 30 µM | 6.78 µM | > 30 µM | 0/6 | 59.8% | 19.4 ± 0.41 | 20.9 ± 0.38 | – | 2.89 ± 1.05 | certain toxicity to some cells | 359.8 ± 45.4 | – | – |
| CCN(CC)CCS(=O)(=O)Nc1c(C)[nH]c(/C=C2\C(=O)Nc3ccc(F)cc32)c1C [Compound 9, N-{5-[5-fluoro-2-oxo-1,2-dihydro-indol-(3Z)-ylidenemethyl]-2,4-dimethyl-1H-pyrrol-3-yl}-2-(N,N-diethylamino)ethylsulfonamide] | 93% | 100% | 100% | > 30 µM | > 30 µM | 8.58 µM | 0/6 | 63% | 19.6 ± 0.25 | 21.4 ± 0.38 | – | 2.66 ± 0.69 | certain toxicity to some cells | 328.3 ± 45.4 | – | – |
| Cc1[nH]c(/C=C2\C(=O)Nc3ccc(F)cc32)c(C)c1NC(=O)CCN1CCOCC1 [Compound 12, N-{5-[5-fluoro-2-oxo-1,2-dihydro-indol-(3Z)-ylidenemethyl]-2,4-dimethyl-1H-pyrrol-3-yl}-3-(morpholin-4-yl)propionamide] | 94% | 100% | 100% | > 30 µM | 4.75 µM | 7.59 µM | 0/6 | 79.8% | 17.2 ± 0.54 | 19.1 ± 0.57 | 197.9 ± 48.1 | 1.45 ± 0.37 | certain toxicity to some cells | – | – | – |
| Cc1[nH]c(/C=C2\C(=O)Nc3ccc(F)cc32)c(C)c1NC(=O)CCN1CCCCC1 [Compound 13, N-{5-[5-fluoro-2-oxo-1,2-dihydro-indol-(3Z)-ylidenemethyl]-2,4-dimethyl-1H-pyrrol-3-yl}-3-(piperidin-1-yl)propionamide] | 93% | 100% | 100% | > 30 µM | > 30 µM | 8.69 µM | 0/6 | 71.1% | 19.1 ± 0.85 | 20.1 ± 0.88 | 253.8 ± 56.4 | 2.08 ± 0.59 | certain toxicity to some cells | – | – | – |
| Cc1[nH]c(/C=C2\C(=O)Nc3ccc(F)cc32)c(C)c1NC(=O)CN1CCOCC1 [Compound 19, N-{5-[5-fluoro-2-oxo-1,2-dihydro-indol-(3Z)-ylidenemethyl]-2,4-dimethyl-1H-pyrrol-3-yl}-2-(morpholin-4-yl)acetamide] | 89% | 100% | 100% | > 30 µM | > 30 µM | 7.6 µM | – | – | – | – | – | – | certain toxicity to some cells | – | – | – |
| CCN(CC)CCNC(=O)c1c(C)[nH]c(/C=C2\C(=O)Nc3ccc(F)cc32)c1C [Sunitinib, reference compound] | 95% | 100% | 100% | 11.5 µM | 2.03 µM | 1.93 µM | one tumor-bearing mouse died and 1/6 | 88.5% | 19.4 ± 0.44 | – | 129.6 ± 45.8 | – | – | – | yellowing skin and blood in excrement | decreased significantly |
